# From patent publication US8691799B2, “Materials and methods for treatment of cancer and identification of anti-cancer compounds” (priority 2001, dated 2014)
# Experiments:
# [1] = system: phospho-Akt; assay: Western blotting for phospho-Akt; format: cell-based, human; conditions: A549 and MDA-MB-468 cells, up to 10 μM
# Description: Western Blotting. Treated cell samples were lysed in 30 mM Hepes, pH 7.5, 10 mM NaCl, 5 mM MgCl2, 25 mM NaF, 1 mM EGTA, 1% Triton-X-100, 10% glycerol, 2 mM sodium orthovanadate, 10 μg/ml aprotinin, 10 μg/ml soybean trypsin inhibitor, 25 μg/ml leupeptin, 2 mM PMSF, and 6.4 mg/ml p-nitrophenylphosphate. Phospho-STAT3, phospho-AKT, phospho-MEK, and phospho-p42/p44 MAPK antibodies were obtained from Cell Signaling Technologies, Cambridge, Mass. Antibodies to STAT3, JAK2, and phospho-INK were purchased from Santa Cruz Biotechnology, Santa Cruz, Calif. Phospho-JAK2 antibody came from Upstate Biotechnology, Lake Placid, N.Y. Membranes were blocked in either 5% milk in PBS, pH 7.4, containing 0.1% Tween-20 (PBS-T) or 1% BSA in TBS, pH 7.5, containing 0.1% Tween-20 (TBS-T). Phospho-specific antibodies (excepting P-MAPK and P-JNK) were incubated in 1% BSA in TBS-T while all other antibodies were diluted in 5% milk in PBS-T for either 2 hr at room temperature or overnight at 4° C. HRP-conjugated secondary antibodies (Jackson ImmunoResearch) were diluted in 5% milk in either PBS-T or TBS-T at 1:1000 dilution for one hour at room temperature. Western blots were visualized using enhanced chemiluminescence as described previously (Blaskovich, M. A. et al. Nat. Biotechnol., 2000, 18:1065-1070).
# [2] = system: Src; assay: Src kinase autophosphorylation assay on immunoprecipitates; format: biochemical; conditions: immunoprecipitates from A549, MDA-MB-468 or v-Src/NIH 3T3 cells
# Description: Src Kinase Assay. A549, MDA-MB-468, and v-Src cells were harvested and lysed for 30 min on ice in RIPA150 buffer (10 mM Tris, pH 7.5, 150 mM NaCl, 10% glycerol, 5 mM EDTA, 1% Triton-X-100, 0.1% SDS, 100 μM sodium orthovanadate, 10 μg/ml aprotinin, 10 μg/ml leupeptin, 1 μg/ml antipain). Samples were spun at high speed to clear, then 1000 μg of protein were immunoprecipitated per treatment condition with 2 μg v-Src antibody (Ab-1, Oncogene Research Products, San Diego, Calif.) rocking overnight at 4° C. 25 μl of protein A/G PLUS agarose then was added and rocking continued for 4 hr at 4° C. Samples were spun to collect agarose pellet, and pellet washed three times in RIPA150 buffer, twice in RIPA10 buffer (10 mM Tris, pH 7.5, 10 mM NaCl, 10% glycerol, 5 mM EDTA, 1% Triton-X-100, 0.1% SDS, 100 μM sodium orthovanadate 10 μg/ml aprotinin, 10 μg/ml leupeptin, 1 μg/ml antipain), and three times in 40 mM Tris, pH 7.4. Pellet was then resuspended in 30 μl kinase reaction buffer (20 mM Tris, pH 7.4, 5 mM MgCl2) containing 10 μCi γ-[^32P]ATP. Inhibitors were preincubated for several minutes before the addition of the ATP. Kinase reactions were carried out at room temperature for 15 min. Reaction was stopped with the addition of 2×SDS-PAGE sample buffer. Samples were boiled and run on 10% SDS-PAGE gels. Autophosphorylation results were visualized by autoradiography.
# [3] = system: B16-F10 tumors; assay: Antitumor activity, B16-F10 melanoma in C57 black mice; format: in vivo; conditions: 1 mg/Kg/day
# Excerpt: Antitumor Activity in the Nude Mouse Tumor Xenograft Model. Nude mice and C57 BL-6 black mice (National Cancer Institute, Bethesda, Md.) were maintained in accordance with the Institutional Animal Care and Use Committee (IACUC) procedures and guidelines. v-Src- and oncogenic H-Ras-transformed NIH 3T3, A549, MDA-MB-468 and Calu-1 cells were harvested, resuspended in PBS and injected s.c. into the right and left flank (10×10^6 cells per flank) of 8 week old female nude mice as reported previously (Sun, J. et al. Cancer Res., 1999, 59:4919-4926). Similarly, murine B16-F10 Melanoma cells were injected s.c. into the right and left flank (10^6 cells per flank) of C57 black mice. When tumors reached about 150 mm^3, animals were randomized (five animals per group; two tumors per animal) and dosed i.p. with 0.2 ml once daily. Control animals received DMSO (20%) vehicle whereas treated animals were injected with JSI-124 (1 mg/kg/day) in 20% DMSO in water. The tumor volumes were determined by measuring the length (l) and the width (w) and calculating the volume (V=1w^2/2) as described previously (Sun, J. et al. Cancer Res., 1999, 59:4919-4926). Statistical significance between control and treated animals were evaluated by using Student's t-test. […] Percent surviving mice was determined by monitoring the death of mice until all mice died. […]
structure (smiles),measurement,setting,value
"CC(C)(O)/C=C/C(=O)[C@](C)(O)[C@H]1[C@H](O)C[C@@]2(C)[C@@H]3CC=C4[C@@H](C=C(O)C(=O)C4(C)C)[C@]3(C)C(=O)C[C@]12C [JSI-124, cucurbitacin I]",phospho-Akt levels,[1],no inhibitory effect
same,Src kinase activity (autophosphorylation) in vitro,[2],not affected
same,average size of B16-F10 tumors,[3],588±94
same,inhibition of B16-F10 tumor growth,[3],56%
